{"source": "patent US12655113B2", "about": "“Biphenyl compounds as SOCE modulators, compositions and uses thereof” (Università degli Studi del Piemonte Orientale “Amedeo …, priority 2020, dated 2026)", "key": {"[1]": {"system": "tBHQ-induced calcium influx into Hek cells (SOCE)", "assay": "Store-operated calcium entry (SOCE) by Fura-2 Ca2+ measurements in Hek cells", "format": "cell-based, Human", "settings": "for Calcium response to SOCE-modulators (regulation of SOCE): FIG. 2A, HEK cells, stores depleted with 50 μM tBHQ, compound added with 2 mM Ca2+"}, "[2]": {"system": "SOCE in myotubes from KI-STIM1I115F mice (STIM1 mutated protein)", "assay": "Pharmacological modulation of SOCE in myotubes from KI-STIM1 I115F mice", "format": "cell-based, mouse", "settings": "FIG. 4", "description": "Wild-type and KI-STIM1^I115F primary myoblast were obtained from the following muscles: gastrocnemius, tibialis anterior, quadriceps femoris, extensor digitorum longus, soleus, biceps brachii and diaphragm. Each muscle was placed in a 60 mm dish in phosphate-buffered saline (PBS), removed from the tendon and separated longitudinally and subsequently chopped into smaller pieces. The small fragments were incubated with Pronase® (Protease, Streptomyces griseus, Calbiochem®, 25 KU) for 1 hour at 37° C. in shaking and neutralized with Dulbecco's Modified Eagle's Medium (DMEM, Sigma-Aldrich, Italy), supplemented with 10% heat-inactivated FCS (Gibco, Italy), L-glutamine 50 mg/mL (Sigma-Aldrich, Italy), penicillin 10 U/mL and streptomycin […] (Sigma-Aldrich, Italy), and 1% chicken embryo extract (Sigma-Aldrich, Italy). Tissues were then chopped into smaller pieces passing through pipets of 10 and 5 mL and the supernatant obtained was filtered in 40 μm strainer and centrifuge at RT for 10 minutes at 1200 rpm. […]\nMyotubes were generated from 4 animals in each condition. We also analysed whether SOCE in WT myotubes was modified during the lifespan of these animals. […]"}, "[3]": {"system": "SOCE in myotubes from mdx mice", "assay": "Pharmacological modulation of SOCE in myotubes of DMD mouse model (mdx)", "format": "cell-based", "settings": "FIG. 6; for over-activation of SOCE in DMD mouse model (DMD mutated protein): myotubes from mdx mice", "description": "Myotubes were generated from 4 animals in each condition. We analysed whether SOCE is increased in myotubes from mxd mice as compared to myotubes from WT mice. To do this, we employed a classical protocol for Ca^2+-entry, in which stores are depleted with tBHQ in a Ca^2+-free buffer and after 10 minutes cells are perfused in a Ca^2+-containing solution (2 mM).\nMyotubes from 4 wild type (WT) and 4 mdx mice were loaded with 5 μM Fura-2 AM and placed in an extracellular solution containing 0 mM Ca^2+. Stores were depleted with 50 μM tBHQ and after 10 minutes cells are perfused in a Ca^2+-containing solution (2 mM) in presence or absence of the selected compound (3-(1-(3-methoxy-[1,1-biphenyl]-4-yl)-1H-1,2,3-triazol-4-yl)benzoic acid)."}, "[4]": {"settings": "Homo sapiens, HEK293, Hek cells"}, "[5]": {"settings": "Homo sapiens, HEK293, Hek cells, 3 μM"}}}
{"smiles": "CSc1cccc(-c2ccc(-n3cc(-c4cccc(C(=O)O)c4)nn3)cc2)c1", "note": "[Compound 11, 3-(1-(3′-(methylthio)-[1,1′-biphenyl]-4-yl)-1H-1,2,3-triazol-4-yl)benzoic acid]", "values": [{"measurement": "inhibition at 10 µM", "setting": "[1]; [4]", "result": "72.6 ± 13.6", "unit": "%"}]}
{"smiles": "COc1ccccc1-c1ccc(-n2cc(-c3cccc(C(=O)O)c3)nn2)cc1", "note": "[Compound 12, 3-(1-(2′-methoxy-[1,1′-biphenyl]-4-yl)-1H-1,2,3-triazol-4-yl)benzoic acid]", "values": [{"measurement": "inhibition at 10 µM", "setting": "[1]; [4]", "result": "47.2 ± 7.2", "unit": "%"}]}
{"smiles": "COc1cccc(-c2ccc(-n3cc(-c4cccc(C(=O)O)c4)nn3)cc2)c1", "note": "[Compound 13, 3-(1-(3′-Methoxy-[1,1′-biphenyl]-4-yl)-1H-1,2,3-triazol-4-yl)benzoic acid]", "values": [{"measurement": "Calcium response to SOCE-modulators (regulation of SOCE)", "setting": "[1]", "result": "negatively regulate SOCE"}, {"measurement": "inhibition at 3 µM", "setting": "[1]; [5]", "result": "85 ± 9", "unit": "%"}, {"measurement": "over-activation of STIM1 mutated protein", "setting": "[2]", "result": "able to revert the over-activation of STIM1 mutated protein"}, {"measurement": "SOCE in myotubes from mdx mice", "setting": "[3]; 10 μM", "result": "impairs SOCE"}, {"measurement": "over-activation of SOCE in DMD mouse model (DMD mutated protein)", "setting": "[3]", "result": "able to revert the over-activation of DMD mutated protein"}]}
{"smiles": "COc1ccc(-c2ccc(-n3cc(-c4cccc(C(=O)O)c4)nn3)cc2)c(OC)c1", "note": "[Compound 15, 3-(1-(2′,4′-dimethoxy-[1,1′-biphenyl]-4-yl)-1H-1,2,3-triazol-4-yl)benzoic acid]", "values": [{"measurement": "inhibition at 10 µM", "setting": "[1]; [4]", "result": "68.1 ± 4.2", "unit": "%"}]}
{"smiles": "COc1cc(OC)cc(-c2ccc(-n3cc(-c4cccc(C(=O)O)c4)nn3)cc2)c1", "note": "[Compound 16, 3-(1-(3′,5′-dimethoxy-[1,1′-biphenyl]-4-yl)-1H-1,2,3-triazol-4-yl)benzoic acid]", "values": [{"measurement": "inhibition at 10 µM", "setting": "[1]; [4]", "result": "77.4 ± 4.7", "unit": "%"}]}
{"smiles": "O=C(O)c1cccc(-c2cn(-c3ccc(-c4ccc5c(c4)OCO5)cc3)nn2)c1", "note": "[Compound 17, 3-(1-(4-(benzo[d][1,3]dioxol-5-yl)phenyl)-1H-1,2,3-triazol-4-yl)benzoic acid]", "values": [{"measurement": "inhibition at 10 µM", "setting": "[1]; [4]", "result": "37.3 ± 4.2", "unit": "%"}]}
{"smiles": "O=C(O)c1cccc(-c2cn(-c3ccc(-c4ccc5c(c4)OCCO5)cc3)nn2)c1", "note": "[Compound 18, 3-(1-(4-(2,3-dihydrobenzo[b][1,4]dioxin-6-yl)phenyl)-1H-1,2,3-triazol-4-yl)benzoic acid]", "values": [{"measurement": "Calcium response to SOCE-modulators (regulation of SOCE)", "setting": "[1]", "result": "negatively regulate SOCE"}, {"measurement": "inhibition at 10 µM", "setting": "[1]; [4]", "result": "82.7 ± 4", "unit": "%"}, {"measurement": "over-activation of STIM1 mutated protein", "setting": "[2]", "result": "able to revert the over-activation of STIM1 mutated proteins"}, {"measurement": "over-activation of SOCE in DMD mouse model (DMD mutated protein)", "setting": "[3]", "result": "able to revert the over-activation of SOCE in DMD mouse model"}]}
{"smiles": "COc1cccc(-c2ccc(-n3cc(-c4cccc(C(=O)O)c4)nn3)cc2)c1OC", "note": "[Compound 20, 3-(1-(2′,3′-dimethoxy-[1,1′-biphenyl]-4-yl)-1H-1,2,3-triazol-4-yl)benzoic acid]", "values": [{"measurement": "Calcium response to SOCE-modulators (regulation of SOCE)", "setting": "[1]", "result": "negatively regulate SOCE"}]}
{"smiles": "COc1ccc(OC)c(-c2ccc(-n3cc(-c4cccc(C(=O)O)c4)nn3)cc2)c1", "note": "[Compound 24, 3-(1-(2′,5′-dimethoxy-[1,1′-biphenyl]-4-yl)-1H-1,2,3-triazol-4-yl)benzoic acid]", "values": [{"measurement": "inhibition at 3 µM", "setting": "[1]; [5]", "result": "85.8 ± 6.5", "unit": "%"}]}
{"smiles": "COc1ccc(OC)c(-c2ccc(-n3cc(-c4ccnc(C(=O)O)c4)nn3)cc2)c1", "note": "[Compound 25, 4-(1-(2′,5′-dimethoxy-[1,1′-biphenyl]-4-yl)-1H-1,2,3-triazol-4-yl)picolinic acid]", "values": [{"measurement": "inhibition at 10 µM", "setting": "[1]; [4]", "result": "79.9 ± 4.1", "unit": "%"}]}
{"smiles": "COc1ccc(OC)c(-c2ccc(-n3cc(-c4ccncc4F)nn3)cc2)c1", "note": "[Compound 26, 4-(1-(2′,5′-dimethoxy-[1,1′-biphenyl]-4-yl)-1H-1,2,3-triazol-4-yl)-3-fluoropyridine]", "values": [{"measurement": "Calcium response to SOCE-modulators (regulation of SOCE)", "setting": "[1]", "result": "no activity"}]}
{"smiles": "COc1ccccc1-c1ccc(-c2cn(-c3cccc(C(=O)O)c3)nn2)cc1", "note": "[Compound 35, 3-(4-(2′-methoxy-[1,1′-biphenyl]-4-yl)-1H-1,2,3-triazol-1-yl)benzoic acid]", "values": [{"measurement": "inhibition at 10 µM", "setting": "[1]; [4]", "result": "59.6 ± 5.43", "unit": "%"}]}
{"smiles": "COc1cccc(-c2ccc(-c3cn(-c4cccc(C(=O)O)c4)nn3)cc2)c1", "note": "[Compound 36, 3-(4-(3′-methoxy-[1,1′-biphenyl]-4-yl)-1H-1,2,3-triazol-1-yl)benzoic acid]", "values": [{"measurement": "inhibition at 10 µM", "setting": "[1]; [4]", "result": "87 ± 1.1", "unit": "%"}]}
{"smiles": "COc1ccc(-c2ccc(-c3cn(-c4cccc(C(=O)O)c4)nn3)cc2)c(OC)c1", "note": "[Compound 37, 3-(4-(2′,4′-dimethoxy-[1,1′-biphenyl]-4-yl)-1H-1,2,3-triazol-1-yl)benzoic acid]", "values": [{"measurement": "inhibition at 10 µM", "setting": "[1]; [4]", "result": "77.1 ± 0.9", "unit": "%"}]}
{"smiles": "COc1cc(OC)cc(-c2ccc(-c3cn(-c4cccc(C(=O)O)c4)nn3)cc2)c1", "note": "[Compound 38, 3-(4-(3′,5′-dimethoxy-[1,1′-biphenyl]-4-yl)-1H-1,2,3-triazol-1-yl)benzoic acid]", "values": [{"measurement": "inhibition at 10 µM", "setting": "[1]; [4]", "result": "86.2 ± 4.2", "unit": "%"}]}
{"smiles": "COc1cccc(-c2ccc(-c3cn(-c4cccc(C(=O)O)c4)nn3)cc2)c1OC", "note": "[Compound 42, 3-(4-(2′,3′-dimethoxy-[1,1′-biphenyl]-4-yl)-1H-1,2,3-triazol-1-yl)benzoic acid]", "values": [{"measurement": "inhibition at 3 µM", "setting": "[1]; [5]", "result": "93.2 ± 5.1", "unit": "%"}]}
{"smiles": "COc1cccc(OC)c1-c1ccc(-c2cn(-c3cccc(C(=O)O)c3)nn2)cc1", "note": "[Compound 44, 3-(4-(2′,6′-dimethoxy-[1,1′-biphenyl]-4-yl)-1H-1,2,3-triazol-1-yl)benzoic acid]", "values": [{"measurement": "activity at 3 µM", "setting": "[1]; Homo sapiens, HEK293, Hek cells, 3 μM, read-out: Residual activity of SOCE", "result": "122.8 ± 0.89", "unit": "%"}]}
{"smiles": "COc1ccc(OC)c(-c2ccc(-c3cn(-c4cccc(C(=O)O)c4)nn3)cc2)c1", "note": "[Compound 46, 3-(4-(2′,5′-dimethoxy-[1,1′-biphenyl]-4-yl)-1H-1,2,3-triazol-1-yl)benzoic acid]", "values": [{"measurement": "inhibition at 3 µM", "setting": "[1]; [5]", "result": "78.7 ± 3.8", "unit": "%"}, {"measurement": "inhibition at 10 µM", "setting": "[1]; [4]", "result": "87.8 ± 2.9", "unit": "%"}]}
{"smiles": "COC(=O)c1cc(-n2cc(-c3ccc(-c4cc(OC)ccc4OC)cc3)nn2)ccn1", "note": "[Compound 47, methyl 4-(4-(2′,5′-dimethoxy-[1,1′-biphenyl]-4-yl)-1H-1,2,3-triazol-1-yl)picolinate]", "values": [{"measurement": "inhibition at 10 µM", "setting": "[1]; [4]", "result": "73.5 ± 1.4", "unit": "%"}]}
